Results taken from ChEMBL document CHEMBL1147158, “Novel selective neuropeptide Y2 receptor PEGylated peptide agonists reduce food intake and body weight in mice” (J Med Chem, 2007).
Residues, ends and D or L forms follow the SMILES beside them. *: point of attachment. X1 = CSc1ncccc1C(=O)*

How the values were obtained:
[1] = target: T1, Neuropeptide Y receptor type 2 (Homo sapiens, UniProt P49146); experiment: Displacement of [125I]PYY from human NPY2
T1 sequence (P49146 whole entry): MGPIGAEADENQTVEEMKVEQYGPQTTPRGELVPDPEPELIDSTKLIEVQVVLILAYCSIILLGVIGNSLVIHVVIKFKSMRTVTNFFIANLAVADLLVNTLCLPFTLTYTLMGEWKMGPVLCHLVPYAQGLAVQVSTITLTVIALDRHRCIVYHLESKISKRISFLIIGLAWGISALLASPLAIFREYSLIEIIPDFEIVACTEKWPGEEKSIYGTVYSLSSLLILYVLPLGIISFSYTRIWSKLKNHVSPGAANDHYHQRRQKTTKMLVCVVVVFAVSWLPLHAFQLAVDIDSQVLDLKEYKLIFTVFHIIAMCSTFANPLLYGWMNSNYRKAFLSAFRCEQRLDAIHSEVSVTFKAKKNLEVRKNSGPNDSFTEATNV

[2] = target: T1, Neuropeptide Y receptor type 2; experiment: Agonist activity at human NPY2 by [35S]GTPgammaS […] assay; assay type: functional
[3] = target: T2, Neuropeptide Y receptor type 5 (Homo sapiens, UniProt Q15761); experiment: Displacement of [125I]PYY from human NPY5
T2 sequence (Q15761 whole entry): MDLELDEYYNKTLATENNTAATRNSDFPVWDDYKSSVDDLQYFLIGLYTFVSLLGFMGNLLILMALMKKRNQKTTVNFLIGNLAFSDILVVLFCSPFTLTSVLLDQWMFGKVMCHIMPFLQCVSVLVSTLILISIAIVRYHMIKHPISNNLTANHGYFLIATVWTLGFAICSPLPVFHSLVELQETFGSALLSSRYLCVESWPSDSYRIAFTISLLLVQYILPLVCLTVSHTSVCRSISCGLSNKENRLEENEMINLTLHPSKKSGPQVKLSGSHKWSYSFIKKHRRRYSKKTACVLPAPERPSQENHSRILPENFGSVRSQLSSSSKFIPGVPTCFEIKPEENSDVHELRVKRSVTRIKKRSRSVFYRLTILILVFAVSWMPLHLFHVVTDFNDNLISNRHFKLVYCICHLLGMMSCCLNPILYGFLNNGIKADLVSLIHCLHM

[4] = target: T3, Neuropeptide Y receptor type 1 (Homo sapiens, UniProt P25929); experiment: Displacement of [125I]PYY from human NPY1
T3 sequence (P25929 whole entry): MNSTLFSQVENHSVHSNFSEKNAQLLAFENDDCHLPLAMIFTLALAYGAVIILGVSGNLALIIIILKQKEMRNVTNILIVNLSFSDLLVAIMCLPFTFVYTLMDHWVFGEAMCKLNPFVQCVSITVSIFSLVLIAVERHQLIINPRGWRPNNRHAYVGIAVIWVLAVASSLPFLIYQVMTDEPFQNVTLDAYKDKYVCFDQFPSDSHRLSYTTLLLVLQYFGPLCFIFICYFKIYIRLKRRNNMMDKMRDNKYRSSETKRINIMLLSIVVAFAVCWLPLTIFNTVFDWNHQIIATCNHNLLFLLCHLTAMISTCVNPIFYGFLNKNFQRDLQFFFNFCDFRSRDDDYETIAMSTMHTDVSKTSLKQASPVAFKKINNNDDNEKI

Ki [1]: 11 nM (antagonist)
EC50 [2]: 4 nM (agonist)
Ki [3]: > 1000 nM
Ki [4]: > 1000 nM
SMILES: CSc1ncccc1C(=O)N[C@@H](CCCNC(=N)N)C(=O)N[C@@H](Cc1cnc[nH]1)C(=O)N[C@@H](Cc1ccc(O)cc1)C(=O)N[C@@H](CC(C)C)C(=O)N[C@@H](CC(N)=O)C(=O)N[C@@H](CC(C)C)C(=O)N[C@@H](CC(C)C)C(=O)N[C@H](C(=O)N[C@@H](CCCNC(=N)N)C(=O)N[C@@H](CCC(N)=O)C(=O)N[C@@H](CCCNC(=N)N)C(=O)N[C@@H](Cc1ccc(O)cc1)C(N)=O)[C@@H](C)O (X1-RHYLNLLTRQRY-NH2)
